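The compound was tested at five concentrations on cells cultured in 96-well plates, with a 48-hour exposure period. Here, GI50 denotes the concentration required for 50% inhibition of growth.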 Activity calls are given as the source filed them. No stated cut-off is given here; in the data, active = GI50 up to about 1.1 µM and inactive = higher.
What was measured:
Assay in all cases: NCI-60 cell line screen, 48 h
LOX IMVI = test system: LOX IMVI
NCI-H226 = test system: NCI-H226
PC-3 = test system: PC-3
SN12C = test system: SN12C
SF-295 = test system: SF-295
UO-31 = test system: UO-31
HCT-15 = test system: HCT-15
COLO 205 = test system: COLO 205
TK-10 = test system: TK-10
HCT-116 = test system: HCT-116
ACHN = test system: ACHN
SK-MEL-28 = test system: SK-MEL-28
UACC-257 = test system: UACC-257
Hs-578T = test system: Hs-578T
SNB-19 = test system: SNB-19
OVCAR-4 = test system: OVCAR-4
SF-268 = test system: SF-268
SK-MEL-2 = test system: SK-MEL-2
U-251 = test system: U-251
MDA-N = test system: MDA-N
MCF7 = test system: MCF7
EKVX = test system: EKVX
RXF 393 = test system: RXF 393
SNB-75 = test system: SNB-75
BT-549 = test system: BT-549
HCC 2998 = test system: HCC 2998
A549 = test system: A549
UACC-62 = test system: UACC-62
CCRF-CEM = test system: CCRF-CEM
NCI-H23 = test system: NCI-H23
T47D = test system: T47D
MOLT-4 = test system: MOLT-4
HT-29 = test system: HT-29
SK-OV-3 = test system: SK-OV-3
SF-539 = test system: SF-539
HL-60 = test system: HL-60
SK-MEL-5 = test system: SK-MEL-5
MDA-MB-435 = test system: MDA-MB-435
HOP-92 = test system: HOP-92
HOP-62 = test system: HOP-62
OVCAR-5 = test system: OVCAR-5
CAKI-1 = test system: CAKI-1
OVCAR-8 = test system: OVCAR-8
RPMI-8226 = test system: RPMI-8226
KM12 = test system: KM12
IGROV-1 = test system: IGROV-1
OVCAR-3 = test system: OVCAR-3
786-0 = test system: 786-0
K562 = test system: K562
DU-145 = test system: DU-145
M14 = test system: M14
NCI-H460 = test system: NCI-H460
SW-620 = test system: SW-620
SR = test system: SR
MDA-MB-231 = test system: MDA-MB-231
Malme-3M = test system: Malme-3M
NCI/ADR-RES = test system: NCI/ADR-RES
NCI-H522 = test system: NCI-H522

CCOP(=O)(OCC)C(C)(CC)NC1=NC(C(F)(F)F)(C(F)(F)F)NC(=O)N1 (centres undefined)
GI50 (LOX IMVI): > 100 µM (inactive)
GI50 (NCI-H226): 11.3 µM (inactive)
GI50 (PC-3): > 100 µM (inactive)
GI50 (SN12C): > 100 µM (inactive)
GI50 (SF-295): > 100 µM (inactive)
GI50 (UO-31): > 100 µM (inactive)
GI50 (HCT-15): > 100 µM
GI50 (COLO 205): > 100 µM (inactive)
GI50 (TK-10): > 100 µM (inactive)
GI50 (HCT-116): > 100 µM (inactive)
GI50 (ACHN): > 100 µM (inactive)
GI50 (SK-MEL-28): > 100 µM (inactive)
GI50 (UACC-257): > 100 µM (inactive)
GI50 (Hs-578T): 29.8 µM (inactive)
GI50 (SNB-19): > 100 µM (inactive)
GI50 (OVCAR-4): > 100 µM (inactive)
GI50 (SF-268): > 100 µM (inactive)
GI50 (SK-MEL-2): > 100 µM (inactive)
GI50 (U-251): > 100 µM (inactive)
GI50 (MDA-N): > 100 µM (inactive)
GI50 (MCF7): > 100 µM (inactive)
GI50 (EKVX): > 100 µM (inactive)
GI50 (RXF 393): > 100 µM (inactive)
GI50 (SNB-75): > 100 µM (inactive)
GI50 (BT-549): > 100 µM (inactive)
GI50 (HCC 2998): > 100 µM (inactive)
GI50 (A549): > 100 µM (inactive)
GI50 (UACC-62): > 100 µM (inactive)
GI50 (CCRF-CEM): > 100 µM (inactive)
GI50 (NCI-H23): > 100 µM (inactive)
GI50 (T47D): 82 µM (inactive)
GI50 (MOLT-4): > 100 µM (inactive)
GI50 (HT-29): > 100 µM (inactive)
GI50 (SK-OV-3): > 100 µM (inactive)
GI50 (SF-539): > 100 µM (inactive)
GI50 (HL-60): > 100 µM (inactive)
GI50 (SK-MEL-5): > 100 µM (inactive)
GI50 (MDA-MB-435): > 100 µM (inactive)
GI50 (HOP-92): > 100 µM (inactive)
GI50 (HOP-62): > 100 µM (inactive)
GI50 (OVCAR-5): > 100 µM (inactive)
GI50 (CAKI-1): > 100 µM (inactive)
GI50 (OVCAR-8): > 100 µM (inactive)
GI50 (RPMI-8226): > 100 µM (inactive)
GI50 (KM12): > 100 µM (inactive)
GI50 (IGROV-1): 70.1 µM (inactive)
GI50 (OVCAR-3): > 100 µM (inactive)
GI50 (786-0): > 100 µM (inactive)
GI50 (K562): > 100 µM (inactive)
GI50 (DU-145): > 100 µM (inactive)
GI50 (M14): > 100 µM (inactive)
GI50 (NCI-H460): > 100 µM (inactive)
GI50 (SW-620): > 100 µM (inactive)
GI50 (SR): > 100 µM (inactive)
GI50 (MDA-MB-231): > 100 µM (inactive)
GI50 (Malme-3M): > 100 µM (inactive)
GI50 (NCI/ADR-RES): > 100 µM (inactive)

COc1ccc(/C=C2\Oc3cc(OC(C)=O)ccc3C2=O)cc1
GI50 (NCI-H226): > 100 µM (inactive)
GI50 (PC-3): > 100 µM (inactive)
GI50 (SN12C): > 100 µM (inactive)
GI50 (SF-295): > 100 µM (inactive)
GI50 (UO-31): > 100 µM (inactive)
GI50 (HCT-15): 94.4 µM
GI50 (COLO 205): > 100 µM (inactive)
GI50 (TK-10): > 100 µM (inactive)
GI50 (HCT-116): > 100 µM (inactive)
GI50 (ACHN): > 100 µM (inactive)
GI50 (SK-MEL-28): > 100 µM (inactive)
GI50 (UACC-257): > 100 µM (inactive)
GI50 (NCI-H522): 19 µM (inactive)
GI50 (Hs-578T): > 100 µM (inactive)
GI50 (SNB-19): > 100 µM (inactive)
GI50 (OVCAR-4): > 100 µM (inactive)
GI50 (SF-268): > 100 µM (inactive)
GI50 (U-251): > 100 µM (inactive)
GI50 (MDA-N): 76.2 µM (inactive)
GI50 (MCF7): > 100 µM (inactive)
GI50 (EKVX): > 100 µM (inactive)
GI50 (RXF 393): > 100 µM (inactive)
GI50 (SNB-75): > 100 µM (inactive)
GI50 (BT-549): > 100 µM (inactive)
GI50 (HCC 2998): > 100 µM (inactive)
GI50 (A549): > 100 µM (inactive)
GI50 (UACC-62): > 100 µM (inactive)
GI50 (CCRF-CEM): 73.6 µM (inactive)
GI50 (NCI-H23): > 100 µM (inactive)
GI50 (T47D): > 100 µM (inactive)
GI50 (MOLT-4): > 100 µM (inactive)
GI50 (SK-OV-3): > 100 µM (inactive)
GI50 (SF-539): > 100 µM (inactive)
GI50 (HL-60): 94 µM (inactive)
GI50 (SK-MEL-5): > 100 µM (inactive)
GI50 (MDA-MB-435): > 100 µM (inactive)
GI50 (HOP-62): > 100 µM (inactive)
GI50 (CAKI-1): 21.1 µM (inactive)
GI50 (OVCAR-8): > 100 µM (inactive)
GI50 (RPMI-8226): 57.3 µM (inactive)
GI50 (KM12): > 100 µM (inactive)
GI50 (IGROV-1): > 100 µM (inactive)
GI50 (OVCAR-3): > 100 µM (inactive)
GI50 (786-0): > 100 µM (inactive)
GI50 (K562): 78.2 µM (inactive)
GI50 (DU-145): > 100 µM (inactive)
GI50 (M14): > 100 µM (inactive)
GI50 (NCI-H460): > 100 µM (inactive)
GI50 (SW-620): > 100 µM (inactive)
GI50 (SR): 60.8 µM (inactive)
GI50 (MDA-MB-231): > 100 µM (inactive)
GI50 (NCI/ADR-RES): > 100 µM (inactive)
